Experimental data: publication PMC6268222, “Inhibitory Effects of Resveratrol Analogs on Mushroom Tyrosinase Activity” (Molecules, 2012)
Converted amounts (≈) assume the structure as drawn.

Assays:
mushroom tyrosinase = mushroom tyrosinase (Agaricus bisporus, UniProt C7FF04); assay: Tyrosinase inhibition qualitative enzymatic reaction screening; format: biochemical; conditions: second hour of assay; p > 0.05
Protocol: The ability to inhibit the activity of tyrosinase enzyme was evaluated using the enzymatic method described by Macrini et al., with modifications. This method relies on the inhibition of tyrosinase in the presence of its substrate tyrosine, interrupting the synthesis of melanin.
Aliquots (10 µL) of a solution composed of 125 U/mL of mushroom tyrosinase (Sigma-Aldrich, St. Louis, MO, USA) were added to 96-well microplates, and then pH 6.8 phosphate buffer solution (70 µL) and the analogs (60 µL, 350 µg/mL, in 2.5% DMSO) were also added. […] To the resultant mixture, L-tyrosine (70 µL, Sigma-Aldrich) at a concentration of 0.3 mg/mL in distilled water was added (final volume in the wells = 210 µL). The absorbances of the microplate wells were read on a spectrophotometric microplate reader (SpectraCount, Packard, Meriden, CT, USA) at 510 nm (T0). Then, the microplates were incubated at 30 ± 1 °C for 60 minutes and the absorbances were registered again (T1). An additional incubation for 60 minutes at 30 ± 1 °C was done and after this period a new spectrophotometric reading was conducted (T2). The inhibitory percentage at the two times (T1 and T2) was obtained according to the formula to inhibitory activity percentage as follows: [drawing 9] (1) Where IC% = inhibitory activity; C = negative control absorbance; S = sample or positive control absorbance (absorbance at time T1 or T2 minus the absorbance at time T0).

[1] = test system: B16-F10 murine melanoma cells; parameters: method as in PMID 22189272; conditions: cited from earlier work
tyrosinase = target: tyrosinase; parameters: method as in earlier work; conditions: ref 13 (Bernard and Berthon); cited from earlier work

Sequence of mushroom tyrosinase (C7FF04 1-392): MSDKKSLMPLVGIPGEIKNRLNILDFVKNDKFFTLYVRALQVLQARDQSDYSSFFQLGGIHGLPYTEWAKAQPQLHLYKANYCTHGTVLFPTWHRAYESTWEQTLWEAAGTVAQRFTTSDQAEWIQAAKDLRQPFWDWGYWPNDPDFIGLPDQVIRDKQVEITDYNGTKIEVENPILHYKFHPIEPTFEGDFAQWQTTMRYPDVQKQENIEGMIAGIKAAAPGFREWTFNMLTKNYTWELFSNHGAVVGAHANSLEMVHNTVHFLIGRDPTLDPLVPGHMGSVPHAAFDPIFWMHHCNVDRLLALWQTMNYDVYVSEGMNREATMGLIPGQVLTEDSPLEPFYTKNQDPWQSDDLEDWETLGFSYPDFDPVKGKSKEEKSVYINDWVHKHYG

Row | Compound | melting point [°C] | inhibitory ability compared with kojic acid (mushroom tyrosinase) | also measured
1 | O=[N+]([O-])c1ccc(/C=N/c2ccccc2)cc1 [Analog C] | 89.6 to 90.7 |  | 
2 | Oc1ccc(/C=N/c2ccccc2)cc1 [Analog D] |  | statistically equal to that of kojic acid | 
3 | Oc1ccccc1/C=N/c1ccccc1 [Analog E] |  | statistically equal to that of kojic acid | 
4 | COc1cc(/C=N/c2ccccc2)ccc1O [Analog F] | 53.1 to 54.2 | statistically equal to that of kojic acid | 
5 | Oc1ccc(/C=C/c2cc(O)cc(O)c2)cc1 [resveratrol, Resveratrol] |  |  | cellular melanin production [1]: significantly suppressed; cytotoxicity (concentration without any cytotoxicity) [1]: > 200 µM; IC50 (tyrosinase inhibition) (tyrosinase): 57.05 µg/mL (≈ 250 µM)
